The values below come from article PMC4568831 (Molecular pharmaceutics, 2015).

The conditions of series [1]: cited from earlier work.
The conditions of series [2]: humans; cited from earlier work.
Series [3] is described as follows: Measurement of CFZ in tissues, partition ratios after prolonged oral dosing. In kind it is in vivo, mice (male C57Bl6). Conditions: mice, after eight week washout period.
The conditions of series [4]: mice; cited from earlier work.
Series [5] can be described thus: In vitro precipitation / solubilization of CFZ in aqueous media. In kind it is physicochemical. The conditions noted are these: ~5 M HCl, diprotonated state.

Like-named read-outs stand apart in the source and are kept apart here. Some results are limits rather than exact numbers.

On to `CC(C)/N=c1\cc2n(-c3ccc(Cl)cc3)c3ccccc3nc-2cc1Nc1ccc(Cl)cc1` [CFZ, Clofazimine], for which the half-life entry in series [1] (oral, after an acute dose) is listed as “hours to days”; in series [1] (upon prolonged oral administration), “weeks to months”. Besides, the “pharmacokinetic half-life t1/2” value in series [2] was ~ 70 days; in series [4], 170 h. Also, in series [3], the “CFZ mass retained in spleen” value is “exceeded its combined mass retained in the other organs”. Moreover, in series [5], the “pH at which CFZ was completely solubilized in aqueous media” value is on record as less than 1.
